Reference: the NIST ThermoML archive (doi:10.1021/acs.jced.7b00584)
Numbers after ± are expanded uncertainties.

Assays:
[1] = Liquid, Ebulliometric method (Recirculating still)
[2] = Boiling temperature at pressure P; details: 101.3 kPa; Liquid; Ebulliometric method (Recirculating still)

With `OCCCCO` [1,4-butanediol] the “vapor or sublimation pressure” value ([1]; 479.1 K) was 50 ± 1 kPa, the “vapor or sublimation pressure” value ([1]; 489.25 K) was 70 ± 1 kPa and the “Boiling temperature at pressure P” value [2] was 228.00 ± 0.11 °C.
With `C1CCOC1` [tetrahydrofuran] the “vapor or sublimation pressure” value ([1]; 318.85 K) was 50 ± 1 kPa, the “vapor or sublimation pressure” value ([1]; 328.15 K) was 70 ± 1 kPa and the “Boiling temperature at pressure P” value [2] was 65.97 ± 0.11 °C.
With `O=C1CCCO1` [γ-butyrolactone] the “vapor or sublimation pressure” value ([1]; 450.25 K) was 50 ± 1 kPa, the “vapor or sublimation pressure” value ([1]; 462.65 K) was 70 ± 1 kPa and the “Boiling temperature at pressure P” value [2] was 204.00 ± 0.11 °C.
